Structures are written as SMILES. A value given as a limit tells only on which side of the number the result lay.

In one data set the test system is MT-4 cells. Briefly: Cytotoxicity test in MT-4 cells (MTT method). The class given is cell-based.
Details: not given
In the case of `Cc1nc2c(c(C)c(C)n2C)c(-c2ccc3c(c2Cl)CCCO3)c1[C@H](OC(C)(C)C)C(=O)O` [Example 72, (S)-2-(tert-butoxy)-2-((R)-4-(5-chlorochroman-6-yl)-1,2,3,6-tetramethyl-1H-pyrrolo[2,3-b]pyridin-5-yl)acetic acid], the “CC60 (μM) ** : concentration at 50% cell damage with respect to MT-4 cells” value was 16.18 µM. Consider `Cc1nc2c(c(C)c(C)n2C)c(-c2cc(F)c3c(c2C)CCCO3)c1[C@H](OC(C)(C)C)C(=O)O` [Example 74, (S)-2-(Tert-butoxy)-2-((R)-4-(8-fluoro-5-methylchroman-6-yl)-1,2,3,6-tetramethyl-1H-pyrrolo[2,3-b]pyridin-5-yl)acetic acid], for which the “CC60 (μM) ** : concentration at 50% cell damage with respect to MT-4 cells” value turned out to be 23.92 µM. On the same count and under the same terms, the figure for `Cc1nc2c(c(C)c(C)n2C)c(-c2cc(F)c3c(c2C)CCCO3)c1[C@H](OC(C)(C)C)C(=O)O` [Example 75, (S)-2-(tert-butoxy)-2-((S)-4-(8-fluoro-5-methylchroman-6-yl)-1,2,3,6-tetramethyl-1H-pyrrolo[2,3-b]pyridin-5-yl)acetic acid] is 37.22 µM.

Staying with this data set, now noted: human.
As to `Cc1nc2c(c(C)c(C)n2Cc2cc[nH]n2)c(-c2ccc(Cl)cc2)c1[C@H](OC(C)(C)C)C(=O)O` [Example 45, (S)-2-(1-((1H-pyrazol-3-yl)methyl)-4-(4-chlorophenyl)-2,3,6-trimethyl-1H-pyrrolo[2,3-b]pyridin-5-yl)-2-(tert-butoxy)acetic acid], the “CC60 (μM) ** : concentration at 50% cell damage with respect to MT-4 cells” value was determined as 19.33 µM. As for `Cc1nc2c(c(C)c(C)n2Cc2cn[nH]c2)c(-c2ccc(Cl)cc2)c1[C@H](OC(C)(C)C)C(=O)O` [Example 46, (S)-2-(1-((1H-Pyrazol-4-yl)methyl)-4-(4-chlorophenyl)-2,3,6-trimethyl-1H-pyrrolo[2,3-b]pyridin-5-yl)-2-(tert-butoxy)acetic acid], the “CC60 (μM) ** : concentration at 50% cell damage with respect to MT-4 cells” value turned out to be 20.89 µM. With `Cc1nc2c(c(C)c(C)n2Cc2cccnc2F)c(-c2ccc(Cl)cc2)c1[C@H](OC(C)(C)C)C(=O)O` [Example 68, (S)-2-(Tert-butoxy)-2-(4-(4-chlorophenyl)-1-((2-fluoropyridin-3-yl)methyl)-2,3,6-trimethyl-1H-pyrrolo[2,3-b]pyridin-5-yl)acetic acid], the “CC60 (μM) ** : concentration at 50% cell damage with respect to MT-4 cells” value is 17.14 µM. Take `Cc1nc2c(c(C)c(C)n2CC2CC2(F)F)c(-c2ccc(Cl)cc2)c1[C@H](OC(C)(C)C)C(=O)O` (stereo partly drawn) [Example 69, (S)-2-(Tert-butoxy)-2-(4-(4-chlorophenyl)-1-((2,2-difluorocyclopropyl)methyl)-2,3,6-trimethyl-1H-pyrrolo[2,3-b]pyridin-5-yl)acetic acid]: the “CC60 (μM) ** : concentration at 50% cell damage with respect to MT-4 cells” value amounted to 17.55 µM. On the same count and under the same terms, with `Cc1nc2c(c(C)c(C)n2CCN2CCCC2=O)c(-c2ccc(Cl)cc2)c1[C@H](OC(C)(C)C)C(=O)O` [Example 70, (S)-2-(Tert-butoxy)-2-(4-(4-chlorophenyl)-2,3,6-trimethyl-1-(2-(2-oxopyrrolidin-1-yl)ethyl)-1H-pyrrolo[2,3-b]pyridin-5-yl)acetic acid] the figure was 49.2 µM; with `Cc1nc2c(c(C)c(C)n2CCN2CCCC2)c(-c2ccc(Cl)cc2)c1[C@H](OC(C)(C)C)C(=O)O` [Example 71], 73.54 µM. The same measure, in the same setting: with `Cc1nc2c(c(C)c(C)n2C)c(-c2ccc3c(c2Cl)CCCO3)c1[C@H](OC(C)(C)C)C(=O)O` [Example 73, (S)-2-(tert-butoxy)-2-((S)-4-(5-chlorochroman-6-yl)-1,2,3,6-tetramethyl-1H-pyrrolo[2,3-b]pyridin-5-yl)acetic acid] the figure was 25.1 µM; with `Cc1nc2c(c(C)c(C)n2CC2CC2)c(-c2cc(F)c3c(c2C)CCCO3)c1[C@H](OC(C)(C)C)C(=O)O` [Example 76, (S)-2-(Tert-butoxy)-2-((R)-1-(cyclopropylmethyl)-4-((R)-8-fluoro-5-methylchroman-6-yl)-2,3,6-trimethyl-1H-pyrrolo[2,3-b]pyridin-5-yl)acetic acid], 13.94 µM. Same read-out and setting: the figure for `Cc1nc2c(c(C)c(C)n2Cc2cnccn2)c(-c2ccc(Cl)cc2)c1[C@H](OC(C)(C)C)C(=O)O` [Example 77, (S)-2-(Tert-butoxy)-2-(4-(4-chlorophenyl)-2,3,6-trimethyl-1-(pyrazin-2-ylmethyl)-1H-pyrrolo[2,3-b]pyridin-5-yl)acetic acid] is 38.86 µM.

For the molecule `COCCn1c(C)c(C)c2c(-c3ccc(Cl)cc3)c([C@H](OC(C)(C)C)C(=O)O)c(C)nc21` [Example 78, (S)-2-(tert-butoxy)-2-(4-(4-chlorophenyl)-1-(2-methoxyethyl)-2,3,6-trimethyl-1H-pyrrolo[2,3-b]pyridin-5-yl)acetic acid], the “CC60 (μM) ** : concentration at 50% cell damage with respect to MT-4 cells” value was found to be 18.36 µM. Regarding `Cc1nc2c(c(C)c(C)n2Cc2ccn(C)n2)c(-c2ccc(Cl)cc2)c1[C@H](OC(C)(C)C)C(=O)O` [Example 79, (S)-2-(tert-butoxy)-2-(4-(4-chlorophenyl)-2,3,6-trimethyl-1-((1-methyl-1H-pyrazol-3-yl)methyl)-1H-pyrrolo[2,3-b]pyridin-5-yl)acetic acid], the “CC60 (μM) ** : concentration at 50% cell damage with respect to MT-4 cells” value worked out at 25.09 µM.

Tested on in the next data set: not given
Test: not given
Details: not given
On to `Cc1nc2c(c(C)c(C)n2Cc2cc[nH]n2)c(-c2ccc(Cl)cc2)c1[C@H](OC(C)(C)C)C(=O)O` [Example 45, (S)-2-(1-((1H-pyrazol-3-yl)methyl)-4-(4-chlorophenyl)-2,3,6-trimethyl-1H-pyrrolo[2,3-b]pyridin-5-yl)-2-(tert-butoxy)acetic acid], for which the melting point was determined as 140 °C. Same read-out and setting: with `Cc1nc2c(c(C)c(C)n2Cc2cn[nH]c2)c(-c2ccc(Cl)cc2)c1[C@H](OC(C)(C)C)C(=O)O` [Example 46, (S)-2-(1-((1H-Pyrazol-4-yl)methyl)-4-(4-chlorophenyl)-2,3,6-trimethyl-1H-pyrrolo[2,3-b]pyridin-5-yl)-2-(tert-butoxy)acetic acid] the figure was above 230 °C.

What is called melting point is the temperature, or range, at which the solid turns liquid.

Source of the values: patent US9499537B2, “Antiviral pyrrolopyridine derivatives and method for preparing the same” (KOREA RESEARCH INSTITUTE OF CHEMICAL TECHNOLOGY, priority 2011, dated 2016).
